Measured values from patent US20240335431A1, “1-H-PYRROLO[2,3-c]PYRIDINE COMPOUNDS” (Acerta Pharma B.V., priority 2023, published 2024).

Legend:
[1] = Human liver microsomes (HLMs) intrinsic clearance assay; format: in vitro ADME; conditions: human, microsomes; for microsomal CLint at 1 µM: pH 7.4, HLM CLint
[2] = molecular target: muscarinic M2 receptor (Homo sapiens (Human), UniProt P08172); experiment: Muscarinic M2 receptor binding assay (assay 1); conditions: [3H]AF-DX 384 2 nM, Cheng Prusoff
Sequence of muscarinic M2 receptor (P08172 whole entry): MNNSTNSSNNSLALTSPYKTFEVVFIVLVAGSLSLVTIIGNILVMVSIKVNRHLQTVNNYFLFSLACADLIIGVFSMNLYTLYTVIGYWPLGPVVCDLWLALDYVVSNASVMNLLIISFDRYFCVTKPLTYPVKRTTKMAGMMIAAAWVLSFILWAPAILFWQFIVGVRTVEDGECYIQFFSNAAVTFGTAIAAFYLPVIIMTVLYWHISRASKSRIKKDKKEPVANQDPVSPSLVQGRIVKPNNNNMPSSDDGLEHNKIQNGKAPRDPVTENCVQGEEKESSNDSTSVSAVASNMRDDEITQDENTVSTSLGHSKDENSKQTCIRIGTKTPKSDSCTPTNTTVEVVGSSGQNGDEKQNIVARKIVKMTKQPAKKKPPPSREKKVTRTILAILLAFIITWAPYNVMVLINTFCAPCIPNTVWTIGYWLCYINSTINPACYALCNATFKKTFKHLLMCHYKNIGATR
Method: Cell membrane homogenates (60 μg protein) were incubated for 60 minutes at 22° C. with 2 nM [3H]AF-DX 384 in the absence or presence of the test compound in a buffer containing 50 mM Tris-HCl (pH 7.4), 120 mM NaCl, 5 mM KCl, 5 mM MgCl2, and 1 mM EDTA. Nonspecific binding was determined in the presence of 1 μM atropine. Following incubation, the samples were filtered rapidly under vacuum through glass fiber filters (GF/B, Packard) presoaked with 0.3% PEI and rinsed several times with ice-cold 50 mM Tris-HCl using a 96-sample cell harvester (Unifilter, Packard). The filters were dried then counted for radioactivity in a scintillation counter (Topcount, Packard) using a scintillation cocktail (Microscint 0, Packard). The results were expressed as a percent inhibition of the control radioligand specific binding, from which the Ki was calculated. Data were analyzed using software developed at Cerep (Hill software) and validated by comparison with data generated by the commercial software SigmaPlot®4.0 for Windows® (© 1997 by SPSS Inc.). The inhibition constant, Ki, was calculated using the Cheng Prusoff equation:
where L=concentration of ligand in the assay, and Kd=affinity of the ligand for the receptor. The standard reference compound was methoctramine, which was tested in each experiment at several concentrations to obtain a competition curve from which its IC50 was calculated.

Row | Structure (SMILES) | microsomal CLint at 1 µM [1] | Ki [2] | HLM CLint ([1]; 1 µM, pH 7.4)
1 | C[C@@H]1COC[C@@H](C)N1C(=O)c1cc(F)ccc1-n1cc(C(=O)C2CCN(C(=O)[C@H]3N[C@@H]4CC[C@H]3C4)CC2)c2ccncc21 [Example 34, (1-((1R,3S,4S)-2-Azabicyclo[2.2.1]heptane-3-carbonyl)piperidin-4-yl)(1-(2-((3R,5R)-3,5-dimethylmorpholine-4-carbonyl)-4-fluorophenyl)-1H-pyrrolo[2,3-c]pyridin-3-yl)methanone] | 11 µL/min/mg |  | 
2 | CC(C)N(C(=O)c1cc(F)ccc1-n1cc(C(=O)C2CCN(C(=O)[C@H]3N[C@H]4C[C@@H]3[C@@H](F)C4)CC2)c2ccncc21)C(C)C [Example 22, 5-Fluoro-2-(3-(1-((1S,3S,4S,5S)-5-fluoro-2-azabicyclo[2.2.1]heptane-3-carbonyl)piperidine-4-carbonyl)-1H-pyrrolo[2,3-c]pyridin-1-yl)-N,N-diisopropylbenzamide] | 91 µL/min/mg | 700 nM | 
3 | CC(C)N(C(=O)c1cc(F)ccc1-n1cc(C(=O)C2CN(C(=O)[C@H]3NC4CCC3CC4)C2)c2ccncc21)C(C)C [Example 6, (S)-2-(3-(1-(2-Azabicyclo[2.2.2]octane-3-carbonyl)azetidine-3-carbonyl)-1H-pyrrolo[2,3-c]pyridin-1-yl)-5-fluoro-N,N-diisopropylbenzamide] | 40 µL/min/mg | 2300 nM | 
4 | CCN(C(=O)c1cc(F)ccc1-n1c(C)c(C(=O)[C@@H]2CCN(C(=O)[C@@H]3CC[C@H](C)N3)[C@@H](C)C2)c2ccncc21)C(C)C (stereo in doubt) [Example 63, N-Ethyl-5-fluoro-N-isopropyl-2-(2-methyl-3-((2S,4RS)-2-methyl-1-((2S,5S)-5-methylpyrrolidine-2-carbonyl)piperidine-4-carbonyl)-1H-pyrrolo[2,3-c]pyridine-1-yl)benzamide] | 63 µL/min/mg |  | 
5 | Cc1c(C(=O)[C@@H]2CCN(C(=O)[C@@H]3CC[C@H](C)N3)[C@@H](C)C2)c2ccncc2n1-c1ccc(F)cc1C(=O)N(C(C)C)C(C)C (stereo in doubt) [Example 62, 5-Fluoro-N,N-diisopropyl-2-(2-methyl-3-((2S,4RS)-2-methyl-1-((2S,5S)-5-methylpyrrolidine-2-carbonyl)piperidine-4-carbonyl)-1H-pyrrolo[2,3-c]pyridin-1-yl)benzamide] | 12 µL/min/mg |  | 
6 | CCN(C(=O)c1cc(F)ccc1-n1c(C)c(C(=O)C2CCN(C(=O)[C@H]3NC[C@@H]4C[C@@H]43)CC2)c2ccncc21)C(C)C (single isomer, unassigned) [Example 48-1] |  |  | 69 µL/min/mg
7 | Cc1c(C(=O)C2CCN(C(=O)[C@@H]3CCC(C)(C)N3)CC2)c2ccncc2n1-c1ccc(F)cc1C(=O)N(C(C)C)C(C)C (single isomer, unassigned) [Example 56-1] | 133 µL/min/mg | 7400 nM | 
8 | CC(C)c1ncncc1-c1cc(F)ccc1-n1cc(C(=O)C2CCN(C(=O)[C@H]3N[C@@H]4CC[C@H]3C4)CC2)c2ccncc21 [Example 37, (1-((1R,3S,4S)-2-Azabicyclo[2.2.1]heptane-3-carbonyl)piperidin-4-yl)(1-(4-fluoro-2-(4-isopropylpyrimidin-5-yl)phenyl)-1H-pyrrolo[2,3-c]pyridin-3-yl)methanone] | 52 µL/min/mg | 300 nM | 
9 | CCN(C(=O)c1cc(F)ccc1-n1cc(C(=O)C2CCN(C(=O)[C@H]3N[C@@H]4CC[C@H]3C4)CC2)c2ccncc21)C(C)C [Example 31, 2-(3-(1-((1R,3S,4S)-2-Azabicyclo[2.2.1]heptane-3-carbonyl)piperidine-4-carbonyl)-1H-pyrrolo[2,3-c]pyridin-1-yl)-N-ethyl-5-fluoro-N-isopropylbenzamide] | 23 µL/min/mg | 100 nM | 
10 | Cc1c(C(=O)C2CCN(C(=O)[C@H]3NC[C@@H]4C[C@@H]43)CC2)c2ccncc2n1-c1ccc(F)cc1C(=O)N(CC(F)(F)F)C(C)C (single isomer, unassigned) [Example 51-1] | 54 µL/min/mg |  | 
11 | C=C1C[C@@H]2CC[C@H]1[C@@H](C(=O)N1CCC(C(=O)c3cn(-c4ccc(F)cc4C(=O)N(C(C)C)C(C)C)c4cnccc34)CC1)N2 [Example 18, 5-Fluoro-N,N-diisopropyl-2-(3-(1-((1S,3S,4R)-5-methylene-2-azabicyclo[2.2.2]-octane-3-carbonyl)piperidine-4-carbonyl)-1H-pyrrolo[2,3-c]pyridin-1-yl)benzamide] | 172 µL/min/mg | 1000 nM | 
12 | CC(C)n1nccc1-c1cc(F)ccc1-n1cc(C(=O)C2CCN(C(=O)[C@H]3N[C@@H]4CC[C@H]3C4)CC2)c2ccncc21 [Example 36, (1-((1R,3S,4S)-2-Azabicyclo[2.2.1]heptane-3-carbonyl)piperidin-4-yl)(1-(4-fluoro-2-(1-isopropyl-1H-pyrazol-5-yl)phenyl)-1H-pyrrolo[2,3-c]pyridin-3-yl)methanone] | 58 µL/min/mg | 1200 nM | 
13 | CC(C)N(C(=O)c1cc(F)ccc1-n1cc(C(=O)C2CCN(C(=O)[C@H]3NC[C@@H]4CCC[C@@H]43)CC2)c2ccncc21)C(C)C [Example 21, 5-Fluoro-N,N-diisopropyl-2-(3-(1-((1S,3αR,6αS)-octahydrocyclopenta[c]pyrrole-1-carbonyl)piperidine-4-carbonyl)-1H-pyrrolo[2,3-c]pyridin-1-yl)benzamide] | 197 µL/min/mg | 500 nM | 
14 | CC(C)c1ccncc1-c1cc(F)ccc1-n1cc(C(=O)C2CCN(C(=O)[C@H]3N[C@@H]4CC[C@H]3C4)CC2)c2ccncc21 [Example 41, (1-((1R,3S,4S)-2-Azabicyclo[2.2.1]heptane-3-carbonyl)piperidin-4-yl)(1-(4-fluoro-2-(4-isopropylpyridin-3-yl)phenyl)-1H-pyrrolo[2,3-c]pyridin-3-yl)methanone] | 180 µL/min/mg | 100 nM | 
15 | CC(C)N(C(=O)c1cc(F)ccc1-n1cc(C(=O)C2CCN(C(=O)[C@H]3NC4CCC3CC4)CC2)c2ccncc21)C(C)C [Example 20, (S)-2-(3-(1-(2-Azabicyclo[2.2.2]octane-3-carbonyl)piperidine-4-carbonyl)-1H-pyrrolo[2,3-c]pyridin-1-yl)-5-fluoro-N,N-diisopropylbenzamide] | 27 µL/min/mg | 800 nM | 
16 | CCN(C(=O)c1cc(F)ccc1-n1c(C)c(C(=O)C2CCN(C(=O)[C@H]3N[C@@H]4CC[C@H]3C4)CC2)c2ccncc21)C(C)C [Example 46, 2-(3-(1-((1R,3S,4S)-2-Azabicyclo[2.2.1]heptane-3-carbonyl)piperidine-4-carbonyl)-2-methyl-1H-pyrrolo[2,3-c]pyridin-1-yl)-N-ethyl-5-fluoro-N-isopropylbenzamide] | 50 µL/min/mg | 7100 nM | 
17 | CC(C)c1ncccc1-c1cc(F)ccc1-n1cc(C(=O)C2CCN(C(=O)[C@H]3N[C@@H]4CC[C@H]3C4)CC2)c2ccncc21 [Example 38, (1-((1R,3S,4S)-2-Azabicyclo[2.2.1]heptane-3-carbonyl)piperidin-4-yl)(1-(4-fluoro-2-(2-isopropylpyridin-3-yl)phenyl)-1H-pyrrolo[2,3-c]pyridin-3-yl)methanone] | 131 µL/min/mg | 300 nM | 
18 | COCCN(C)CCC[C@H](C(C)C)N1CCC(C(=O)c2cn(-c3ccc(F)cc3C(=O)N(C(C)C)C(C)C)c3cnccc23)CC1 (racemic) [Example 23, rac-(R)-5-Fluoro-N,N-diisopropyl-2-(3-(1-(6-((2-methoxyethyl)(methyl)amino)-2-methylhexan-3-yl)piperidine-4-carbonyl)-1H-pyrrolo[2,3-c]pyridin-1-yl)benzamide] | 156 µL/min/mg | 100 nM | 
19 | O=C(c1cn(-c2ccc(F)cc2-c2cncnc2C2CC2)c2cnccc12)C1CCN(C(=O)[C@H]2N[C@@H]3CC[C@H]2C3)CC1 [Example 40, (1-((1R,3S,4S)-2-Azabicyclo[2.2.1]heptane-3-carbonyl)piperidin-4-yl)(1-(2-(4-cyclopropylpyrimidin-5-yl)-4-fluorophenyl)-1H-pyrrolo[2,3-c]pyridin-3-yl)methanone] | 18 µL/min/mg |  | 
20 | Cc1c(C(=O)C2CCN(C(=O)[C@H]3NC[C@@H]4C[C@@H]43)CC2)c2ccncc2n1-c1ccc(F)cc1C(=O)N(C(C)C)C(C)C (single isomer, unassigned) [Example 55-1] | 125 µL/min/mg | 3800 nM | 
21 | CC(C)N(C(=O)c1cc(F)ccc1-n1cc(C(=O)C2CCN(C(=O)[C@H]3NC[C@@H]4C[C@@H]43)CC2)c2ccncc21)C(C)C [Example 19, 2-(3-(1-((1S,2S,5R)-3-Azabicyclo[3.1.0]hexane-2-carbonyl)piperidine-4-carbonyl)-1H-pyrrolo[2,3-c]pyridin-1-yl)-5-fluoro-N,N-diisopropylbenzamide] | 56 µL/min/mg | 1400 nM | 
22 | CC(C)c1ncsc1-c1cc(F)ccc1-n1cc(C(=O)C2CN(C(=O)[C@H]3N[C@@H]4CC[C@H]3C4)C2)c2ccncc21.O=CO [Example 12, (1-((1R,3S,4S)-2-Azabicyclo[2.2.1]heptane-3-carbonyl)azetidin-3-yl)(1-(4-fluoro-2-(4-isopropylthiazol-5-yl)phenyl)-1H-pyrrolo[2,3-c]pyridin-3-yl)methanone 1·formic acid] | 216 µL/min/mg | 6900 nM | 
